The text below walks through data of patent US20260234140A1, “PYRIDOPYRIMIDINE DERIVATIVE AND USE THEREOF” (SUNSHINE LAKE PHARMA CO., LTD., priority 2023, published 2026).

The assay concerns PD1/PD-L1 pathway. As to the kind of experiment: PD1/PD-L1 Blockade Bioassay, inhibition of the PD1/PD-L1 pathway at the cellular level (luciferase reporter, PD-1 Jukat T cells co-cultured with PD-L1 aAPC/CHO-K1 cells). The conditions noted are these: T-cell; for EC50: PD-1 Jukat T cells + PD-L1 aAPC/CHO-K1 cells, 6 h co-culture, ONE-Glo luciferase readout; for Emax: maximum % Activity relative to atezolizumab (set to 100%). The format is cell-based. Here is the method: Experiment 1: Detecting the Inhibitory Activity of Compounds on the PD1/PD-L1 Pathway at the Cellular Level Using the PD1/PD-L1 Blockade Bioassay Method
PD-1 Jukat T cells were revived and cultured with 1640 medium containing 100 μg/mL Hygromycin B, […] Puromycin, 10% FBS and 1% dual antibody; PD-L1 aAPC/CHO-K1 cells were revived and cultured with F12K medium containing 100 μg/mL Hygromycin B, 200 μg/mL G418, 10% FBS and 1% dual antibody.
The revived cells need to be passaged 2-3 times. When the cells enter the exponential growth phase with good growth status, the PD-L1 aAPC/CHO-K1 was digested with trypsin, and the cells were resuspended in F12K containing 5% FBS and adjusted to a density of 5×10^5 cells/mL. 20 μl/well were plated in a 384-well plate (10,000 cells/well) and incubated in an incubator overnight for 16-20 h.
a Preparation of compound stock solution: Dissolve the compound to be tested in DMSO to prepare a 20 mM stock solution.
b Compound gradient dilution: dilute the compound in 1640 medium containing 5% FBS without antibiotics or phenol red, and make 3-fold gradient dilutions to prepare 10 concentration gradients (2×).
c Adding drugs: Take out the cell culture plate, discard the supernatant, add 20 μl/well of the prepared compound, and incubate in the incubator for 1.5 h.
PD-1 Jukat T cells were collected, washed once with PBS, and resuspended in 1640 medium containing 5% FBS without antibiotics or phenol red. The density was adjusted to 1×10^6 cells/mL. 20 μl PD-1 Jukat T cells (20,000 cells/well) were added to each well and incubated in the incubator for 6 h.
ONE-Glo™ Luciferase Assay reagent was thawed to room temperature in advance and then added to a 384-well plate at 40 µl/well. Incubate in the dark for 15 minutes and read the […] signal on a plate reader.
[formula] • Among them, % Activity: % Activity • RLU: Resulting Luminescence unit • RLUvehicle: Average RLU value of negative control wells on each plate • RLUpositive: Average RLU value of positive control wells on each plate • Vehicle control: DMSO (0.1%) corresponding to the test value was used as negative control (its % Activity was 0%); • Positive control: The highest detection value at the atezolizumab administration concentration was used as the positive control (its % Activity was 100%). • (2) EC50 value calculation method: The EC50 value was obtained by the nonlinear fitting formula of Graph Pad Prism 8.0 software. The calculation formula is as follows:
Y=Bottom+(Top−Bottom)/(1+10^((Log EC50−X)×HillSlope)) • X: log of activator concentration (logarithm of compound concentration); Y: % Activity • (3) Emax definition: The maximum % Activity value corresponding to the maximum activation value of the compound relative to atezolizumab (the activation value is set to 100%).
In general terms: A reporter such as luciferase makes a cellular process visible.

A word on the EC50: it is the midpoint of the concentration-response curve. One may read the Emax as the size of the effect at its maximum, as opposed to the concentration needed. Take `COc1nc(-c2cccc(-c3cccc(Nc4nc(C(F)F)nc5cc(CN6CC[C@@H](O)C6)cnc45)c3C)c2Cl)cnc1CN(C)[C@H]1CC[C@H](C(=O)O)C1` [Example 52, (1S,3S)-3-(((5-(2-chloro-3′-((2-(difluoromethyl)-7-(((R)-3-hydroxypyrrolidin-1-yl)methyl)pyrido[3,2-d]pyrimidin-4-yl)amino)-2′-methyl-[1,1′-biphenyl]-3-yl)-3-methoxypyrazin-2-yl)methyl)(methyl)amino)cyclopentane-1-carboxylic acid]: the EC50 amounted to 75.8 nM and the Emax came to 74.3%.

Take `COc1nc(-c2cccc(-c3cccc(Nc4nc(C(F)F)nc5cc(CN6CCCC6)cnc45)c3C)c2Cl)cnc1CN(C)[C@H]1CC[C@H](C(=O)O)CC1` [Example 20, (1r,4r)-4-(((5-(2-chloro-3′-((2-(difluoromethyl)-7-(pyrrolidin-1-ylmethyl)pyrido[3,2-d]pyrimidin-4-yl)amino)-2′-methyl-[1,1′-biphenyl]-3-yl)-3-methoxypyrazin-2-yl)methyl)(methyl)amino)cyclohexane-1-carboxylic acid]: the EC50 turned out to be 63.5 nM and the Emax was found to be 108%.

In the case of `[2H]C([2H])([2H])N(Cc1ccc(-c2cccc(-c3cccc(Nc4nc(C(F)F)nc5cc(CN6CC[C@@H](O)C6)cnc45)c3C)c2Cl)nc1OC)[C@H]1CC[C@H](C(=O)O)CC1` [Example 13, (1r,4r)-4-(((6-(2-chloro-3′-((2-(difluoromethyl)-7-(((R)-3-hydroxypyrrolidin-1-yl)methyl)pyrido[3,2-d]pyrimidin-4-yl)amino)-2′-methyl-[1,1′-biphenyl]-3-yl)-2-methoxypyridin-3-yl)methyl)(methyl-d3)amino)cyclohexane-1-carboxylic acid], the EC50 is 38.2 nM and the Emax amounted to 104%.

`COc1nc(-c2cccc(-c3cccc(Nc4nc(C(F)F)nc5cc(CN6CC[C@H](CO)C6)cnc45)c3C)c2Cl)cnc1CN(C)[C@H]1CC[C@H](C(=O)O)CC1` [Example 28, (1r,4r)-4-(((5-(2-chloro-3′-((2-(difluoromethyl)-7-(((S)-3-(hydroxymethyl)pyrrolidin-1-yl)methyl)pyrido[3,2-d]pyrimidin-4-yl)amino)-2′-methyl-[1,1′-biphenyl]-3-yl)-3-methoxypyrazin-2-yl)methyl)(methyl)amino)cyclohexane-1-carboxylic acid]: the EC50 was found to be 49.5 nM and the Emax was found to be 95%.

Regarding `COc1nc(-c2cccc(-c3cccc(Nc4nc(C(F)F)nc5cc(CN6CC[C@@H](O)C6)cnc45)c3C)c2Cl)cnc1CN1CCC(C(=O)O)CC1` [Example 15, (R)-1-((5-(2-chloro-3′-((2-(difluoromethyl)-7-((3-hydroxypyrrolidin-1-yl)methyl)pyrido[3,2-d]pyrimidin-4-yl)amino)-2′-methyl-[1,1′-biphenyl]-3-yl)-3-methoxypyrazin-2-yl)methyl)piperidine-4-carboxylic acid], the EC50 was 41.8 nM and the Emax amounted to 97%.

Turning to `COc1nc(-c2cccc(-c3cccc(Nc4nc(C(F)F)nc5cc(CN6CC[C@H](O)C6)cnc45)c3C)c2Cl)cnc1CN1CC[C@H](O)C1` [Example 50, (S)-1-((5-(2-chloro-3′-((2-(difluoromethyl)-7-(((S)-3-hydroxypyrrolidin-1-yl)methyl)pyrido[3,2-d]pyrimidin-4-yl)amino)-2′-methyl-[1,1′-biphenyl]-3-yl)-3-methoxypyrazin-2-yl)methyl)pyrrolidin-3-ol], the EC50 came to 99.1 nM and the Emax was determined as 96%.

As for `COc1nc(-c2cccc(-c3cccc(Nc4nc(C(F)F)nc5cc(CN6CC[C@@H](O)C6)cnc45)c3Cl)c2Cl)ccc1CN(C)[C@H]1CC[C@H](C(=O)O)CC1` [Example 16, (1r,4r)-4-(((6-(2,2′-dichloro-3′-((2-(difluoromethyl)-7-(((R)-3-hydroxypyrrolidin-1-yl)methyl)pyrido[3,2-d]pyrimidin-4-yl)amino)-[1,1′-biphenyl]-3-yl)-2-methoxypyridin-3-yl)methyl)(methyl)amino)cyclohexane-1-carboxylic acid], the EC50 amounted to 28.1 nM and the maximum response (Emax) stood at 107%.

With `COc1nc(-c2cccc(-c3cccc(Nc4nc(C(F)F)nc5cc(CN6CC[C@@H](O)C6)cnc45)c3Cl)c2Cl)cnc1CN(C)[C@H]1CC[C@H](C(=O)O)CC1` [Example 35, (1r,4r)-4-(((5-(2,2′-dichloro-3′-((2-(difluoromethyl)-7-(((R)-3-hydroxypyrrolidin-1-yl)methyl)pyrido[3,2-d]pyrimidin-4-yl)amino)-[1,1′-biphenyl]-3-yl)-3-methoxypyrazin-2-yl)methyl)(methyl)amino)cyclohexane-1-carboxylic acid], the EC50 is 46.1 nM and the Emax is 102%.

On to `[2H]C([2H])([2H])N(Cc1ncc(-c2cccc(-c3cccc(Nc4nc(C(F)F)nc5cc(CN6CC[C@@H](O)C6)cnc45)c3C)c2Cl)nc1OC)[C@H]1CC[C@H](C(=O)O)CC1` [Example 32, (1r,4r)-4-(((5-(2-chloro-3′-((2-(difluoromethyl)-7-(((R)-3-hydroxypyrrolidin-1-yl)methyl)pyrido[3,2-d]pyrimidin-4-yl)amino)-2′-methyl-[1,1′-biphenyl]-3-yl)-3-methoxypyrazin-2-yl)methyl)(methyl-d3)amino)cyclohexane-1-carboxylic acid], for which the EC50 is 76.3 nM and the Emax was 84.1%.

Regarding `COc1nc(-c2cccc(-c3cccc(Nc4nc(C(F)F)nc5cc(CN6CC[C@H](O)C6)cnc45)c3C)c2Cl)cnc1CN[C@@H]1CCOC[C@@H]1O` [Example 51, (S)-1-((4-((2′-chloro-3′-(5-((((3R,4R)-3-hydroxytetrahydro-2H-pyran-4-yl)amino)methyl)-6-methoxypyrazin-2-yl)-2-methyl-[1,1′-biphenyl]-3-yl)amino)-2-(difluoromethyl)pyrido[3,2-d]pyrimidin-7-yl)methyl)pyrrolidin-3-ol], the EC50 is 99.1 nM and the Emax was found to be 96%.

In the case of `COc1nc(-c2cccc(-c3cccc(Nc4nc(C(F)F)nc5cc(CN6CCC(O)CC6)cnc45)c3C)c2Cl)cnc1CN(C)[C@H]1CC[C@H](C(=O)O)CC1` [Example 21, (1r,4r)-4-(((5-(2-chloro-3′-((2-(difluoromethyl)-7-((4-hydroxypiperidin-1-yl)methyl)pyrido[3,2-d]pyrimidin-4-yl)amino)-2′-methyl-[1,1′-biphenyl]-3-yl)-3-methoxypyrazin-2-yl)methyl)(methyl)amino)cyclohexane-1-carboxylic acid], the EC50 turned out to be 105 nM and the Emax was determined as 65%.

`COc1nc(-c2cccc(-c3cccc(Nc4nc(C(F)F)nc5cc(CN6CC(OC)C6)cnc45)c3C)c2Cl)cnc1CN(C)[C@H]1CC[C@H](C(=O)O)CC1` [Example 18, (1r,4r)-4-(((5-(2-chloro-3′-((2-(difluoromethyl)-7-((3-methoxyazetidin-1-yl)methyl)pyrido[3,2-d]pyrimidin-4-yl)amino)-2′-methyl-[1,1′-biphenyl]-3-yl)-3-methoxypyrazin-2-yl)methyl)(methyl)amino)cyclohexane-1-carboxylic acid]: the EC50 was 71.1 nM and the Emax turned out to be 68%.

For the molecule `COc1nc(-c2cccc(-c3cccc(Nc4nc(C(F)F)nc5cc(CN6CC[C@@H](O)C6)cnc45)c3C)c2Cl)cnc1CN(C)C[C@H]1CC[C@H](C(=O)O)CC1` [Example 14, (1r,4r)-4-((((5-(2-chloro-3′-((2-(difluoromethyl)-7-(((R)-3-hydroxypyrrolidin-1-yl)methyl)pyrido[3,2-d]pyrimidin-4-yl)amino)-2′-methyl-[1,1′-biphenyl]-3-yl)-3-methoxypyrazin-2-yl)methyl)(methyl)amino)methyl)cyclohexane-1-carboxylic acid], the EC50 was found to be 31.3 nM and the Emax was found to be 103%.

Take `COc1nc(-c2cccc(-c3cccc(Nc4nc(C(F)F)nc5cc(CN6CC[C@@](C)(O)C6)cnc45)c3C)c2Cl)cnc1CN(C)[C@H]1CC[C@H](C(=O)O)CC1` [Example 29, (1r,4r)-4-(((5-(2-chloro-3′-((2-(difluoromethyl)-7-(((R)-3-hydroxy-3-methylpyrrolidin-1-yl)methyl)pyrido[3,2-d]pyrimidin-4-yl)amino)-2′-methyl-[1,1′-biphenyl]-3-yl)-3-methoxypyrazin-2-yl)methyl)(methyl)amino)cyclohexane-1-carboxylic acid]: the EC50 was 42.9 nM and the Emax is 89%.
